Test results published in patent US10723704B2, “Pyrazolone derivatives as nitroxyl donors” (Cardioxyl Pharmaceuticals, Inc., priority 2015, dated 2020).
Like-named read-outs stand apart in the source and are kept apart here. Blank lines part the entries; values can stand above or below the compound they belong to.

Experiment: Pharmacokinetic activity in rats: IV bolus and oral gavage; plasma, brain and CSF levels by LC-MS/MS
Type: in vivo, Male Sprague-Dawley rats
Details: rat; for Tmax: PO administration of Compound 6, 10 mg/kg, read-out: median Tmax; for presence in brain samples: levels believed due to contamination of brain samples with blood
Procedure: Male Sprague-Dawley rats (n=3/group) were assigned to Groups 1 to 6. Group 1 was administered an intravenous bolus dose of 1 mg/kg a test compound in 30% polyethyleneglycol-200 (PEG-200): 10% DMSO in saline. Serial samples of blood were collected at 0.05, 0.15, 0.75, 1.5, 3, 6, 10 and 24 hours via an implanted jugular vein catheter. Groups 2-6 received oral gavage doses of a test compound, formulated in 100% PEG300 (10 mg/kg). Rats from groups 2-6 were sacrificed at 0.25, 2, 6, 10 or 24 hours post-dose and blood samples (1 mL via cardiac puncture) were collected into chilled tubes containing K2EDTA as the anticoagulant. CSF and brain tissue were also collected at these time points. Blood samples were immediately centrifuged at 3000 g for 5 minutes under refrigerated conditions (4° C.). Plasmas and CSF samples were mixed with an aqueous solution of ascorbic acid to reach a final concentration of 2%. Brain, plasma and CSF samples were stored at −80° C. until analysis. The test compound and by-product concentrations were determined by LC-MS/MS. The eluent from a reversed-phase gradient (water/acetonitrile both containing 0.1% v/v formic acid) on a 1290 UHPLC system (Agilent Technologies, Stockport, UK) was introduced by positive electrospray ionization into an API6500 mass spectrometer (AB Sciex, Warrington, UK) and analyzed by multiple reaction monitoring (MRM). The lower limit of quantification (LLOQ) was in the range 1-10 ng/mL for the test compound and by-products. The mean plasma concentration-time data for each group were used to calculate pharmacokinetic parameters of the test compound and by-products with the software program Phoenix WinNonlin version 6.4 (Certara L. P., Princeton, N.J.).

[1] = male, Sprague-Dawley, plasma, PO administration of Compound 6, 10 mg/kg in 100% PEG300, mean, read-out: plasma Cmax
[2] = male, Sprague-Dawley, IV bolus 1 mg/kg, plasma

- Cmax (male, Sprague-Dawley, CSF, PO Compound 6 10 mg/kg, at 2 h, read-out: Cmax in CSF): 107 ± 33 ng/mL
- Cmax (male, Sprague-Dawley, brain, PO Compound 6 10 mg/kg, at 2 h, read-out: Cmax in brain): 85 ± 22 ng/g
- Cmax [1]: 5220 ng/mL
- Tmax (male, Sprague-Dawley, plasma): 15 min
- amount in brain (PO Compound 6 10 mg/kg): low
- plasma concentration relative to parent compound (Compound 6) (PO Compound 6 10 mg/kg, at Cmax (0.25 h)): 700 fold
- plasma concentration relative to parent compound (Compound 6) (PO Compound 6 10 mg/kg, by 2 h): 2000 fold
- share among drug-related components observed in the samples (after dosing Compound 6): major drug-related component
- distribution (after oral dosing of Compound 6): restricted to the periphery
- presence in brain samples: Traces
SMILES: CC1(NO)C(=O)N(CC(=O)O)N=C1c1ccc(S(C)(=O)=O)cc1 (stereo not shown) [Compound 6a, 2-[4-(hydroxyamino)-3-(4-methanesulfonylphenyl)-4-methyl-5-oxo-4,5-dihydro-1H-pyrazol-1-yl]acetic acid]

- levels in plasma, brain and CSF (compared with Compound 6a) (after dosing Compound 6): much lower levels
SMILES: CCOC(=O)Cn1nc(-c2ccc(S(C)(=O)=O)cc2)c(C)c1O [ethyl 2-[5-hydroxy-3-(4-methanesulfonylphenyl)-4-methyl-1H-pyrazol-1-yl]acetate]

- Kp (male, Sprague-Dawley, CSF, PO 10 mg/kg, 0.25-2 h, read-out: mean CSF:plasma ratio): 4
- Cmax (male, Sprague-Dawley, CSF, PO Compound 6 10 mg/kg, at 0.25 h, read-out: Cmax in CSF): 26 ± 18 ng/mL
- Kp at 0.25 h (male, Sprague-Dawley, brain, PO 10 mg/kg, 0.25 h, read-out: mean brain:plasma ratio): 1.1
- Cmax (male, Sprague-Dawley, brain, PO Compound 6 10 mg/kg, at 0.25 h, read-out: Cmax in brain): 8 ± 2 ng/g
- clearance (male, Sprague-Dawley, plasma, IV bolus 1 mg/kg in 30% PEG-200:10% DMSO in saline): 41 ± 2 mL/min/kg
- Vd (male, Sprague-Dawley, plasma, IV bolus 1 mg/kg, read-out: volume of distribution): 1.1 ± 0.1 L/kg
- Cmax [1]: 8 ng/mL
- C0 [2]: 110 ± 10 ng/mL
- half-life [2]: 24 ± 0.6 min
- Tmax (male, Sprague-Dawley, plasma): 15 min
- absorption after oral dosing (PO 10 mg/kg): very well absorbed
- presence in brain samples: Traces
SMILES: CCOC(=O)CN1N=C(c2ccc(S(C)(=O)=O)cc2)C(C)(NO)C1=O (stereo not shown) [Compound 6, Ethyl 2-[4-(hydroxyamino)-3-(4-methanesulfonylphenyl)-4-methyl-5-oxo-4,5-dihydro-1H-pyrazol-1-yl]acetate]
- metabolism (after oral dosing): rapidly metabolized at the ester function

- levels in plasma, brain and CSF (compared with Compound 6a) (after dosing Compound 6): much lower levels
SMILES: Cc1c(-c2ccc(S(C)(=O)=O)cc2)nn(CC(=O)O)c1O [2-[5-hydroxy-3-(4-methanesulfonylphenyl)-4-methyl-1H-pyrazol-1-yl]acetic acid]
